In the test the test system is mean arterial pressure and heart rate. Kind of test: In vivo blood pressure and heart rate after intravenous dosing in normotensive rats. Further details: species or system Sprague-Dawley rats. Here is the method:
Male Sprague-Dawley rats obtained from Charles River Laboratories, Wilmington, Mass., and weighing 276-300 g, were group housed at 22° C. and kept on 12 hour light/dark cycle. Food and water were provided ad lib. Animals were anesthetized with sodium pentobarbital (65 mg/kg) and under sterile conditions a one-inch incision was made in the fold of the left leg to expose the femoral blood vessels. Two lengths of PE-50 tubing filled with 10% heparin were inserted into the left femoral artery and left femoral vein for measurement of blood pressure and for drug delivery, respectively. The tubings were tunneled under the skin and exposed through the mid-scapular region. Animals were allowed at least 24 hours recovery prior to experiments. A force transducer (Spectramed Model P23XL, Grass Instruments, Quincy, Mass., USA), and tachograph (Model 7P44D, Grass Instruments) was used for recording of systolic and diastolic pressures and heart rate from the femoral artery catheter. Patency of catheters was verified by flushing with either saline or 10% heparin. A dose of either 30, 100, 500, 800 or 1000 nM/kg ([…]) of NPY27-36 (D-Tyr^27,36, D-Thr^32) (prepared as described in Example 1 above), or saline was delivered to the animal via the catheter in the left femoral vein. Changes in systolic and diastolic pressures and heart rater were recorded from the catheter in the left femoral artery over a 10 minute time interval.

Where [1] appears, read: i.v., 30-1000 nM/kg, normotensive Sprague-Dawley rats, recorded over 10 min.

Square brackets hold non-standard residues; d marks the D form. Ends that are not written are not given here.

With “D-Tyr-Ile-Asn-Leu-Ile-D-Thr-Arg-Gln-Arg-D-Tyr-NH2 ([dY]INLI[dT]RQR[dY]-NH2; N-terminus assumed; SMILES CC[C@H](C)[C@H](NC(=O)[C@H](N)Cc1ccc(O)cc1)C(=O)N[C@@H](CC(N)=O)C(=O)N[C@@H](CC(C)C)C(=O)N[C@H](C(=O)N[C@@H](C(=O)N[C@@H](CCCNC(=N)N)C(=O)N[C@@H](CCC(N)=O)C(=O)N[C@@H](CCCNC(=N)N)C(=O)N[C@H](Cc1ccc(O)cc1)C(N)=O)[C@H](C)O)[C@@H](C)CC) [NPY27-36 (D-Tyr^27,36, D-Thr^32)]”, where the note is “i.v. doses of 30 and 100 nM/kg”, the “changes in pressure and heart rate vs saline treatment” value is given as “failed to produce changes that were significantly different from saline treatment”. The “mean arterial pressure vs saline-treated controls” value (i.v. doses of 500, 800 and 1000 nM/kg) is listed as “significantly different decreases in mean arterial pressure”. In addition, the “heart rate vs saline controls” value (i.v. doses of 500 and 1000 nM/kg) is on record as “significantly different increases in heart rate”. Under setting [1], the “heart rate, dose-response” value is listed as “increase in heart rate” and the “mean arterial pressure, dose-response” value is on record as “dose-dependent decrease in mean arterial pressure”.

For the origin of these results see US6075009A, “Neuropeptide Y analogues, compositions and methods of lowering blood pressure” (East Carolina University, priority 1995, dated 2000).
